± gives the standard deviation of the averaged measurements.
Columns and labels:
Details in all cases: treatment time: 3 days
[1] = system: UT-SCC-24A; assay: drug sensitivity score (DSS); higher = more sensitive
Description: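 HNSCC cell lines (500 cells/well, 384-well) were cultured on plastic, on top of (2D) or embedded (3D) in Matrigel or human leiomyoma matrix Myogel (500 ug/mL; Myogel 3D mixed with rat collagen I). Cells were treated for 3 days with 5 ten-fold concentrations of each drug, and viability was read by CellTiter-Glo. Suffixes _1/_2/_3 on drug names are replicates.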

[2] = system: UT-SCC-40; assay: relative IC50 (midpoint of the fitted curve; maximal inhibition may be below 50%); higher = less potent
Procedure, shortened: (§1)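 HPV-negative HNSCC cell lines were plated at 500 cells/well in 384-well plates, either on plastic, on wells coated with Matrigel or Myogel (500 µg/mL), or embedded in Matrigel or Myogel plus rat collagen I. Each compound was tested at five 10-fold concentrations over 3 days. Viability was measured by CellTiter-Glo 2.0 luminescence, and IC50, maximal inhibition and drug sensitivity score came from percent-inhibition dose–response curves fitted in the FIMM pipeline after normalisation to vehicle (0.1% DMSO) and cell-killing control wells.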

[3] = system: UT-SCC-24B; assay: as above
Procedure, shortened: as §1

[4] = system: UT-SCC-44; assay: as above
Procedure, shortened: as §1

[5] = system: UT-SCC-73; assay: as above
Procedure, shortened: as §1

[6] = system: UT-SCC-106A; assay: as above
Procedure, shortened: as §1

[7] = system: UT-SCC-8; assay: as above
Procedure, shortened: as §1

[8] = system: UT-SCC-14; assay: as above
Procedure, shortened: as §1

[9] = system: UT-SCC-42B; assay: as above
Procedure, shortened: as §1

[10] = system: UT-SCC-42A; assay: maximal % inhibition of viability relative to DMSO; higher = stronger effect
Description: (§2)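 HNSCC cell lines (500 cells/well, 384-well) were cultured on plastic, on top of (2D) or embedded (3D) in Matrigel or human leiomyoma matrix Myogel (500 ug/mL; Myogel 3D mixed with rat collagen I). Cells were treated for 3 days with 5 ten-fold concentrations of each drug, and viability was read by CellTiter-Glo. Viability was normalised to DMSO and benzethonium chloride controls and fitted with the FIMM DSRT pipeline to give IC50 (nM), maximal % inhibition and DSS. Suffixes _1/_2/_3 are replicates. Only inhibition-mode (IC50) fits are kept.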

[11] = system: UT-SCC-40; assay: as above
Description: as §2

[12] = system: UT-SCC-24B; assay: as above
Description: as §2

[13] = system: UT-SCC-28; assay: as above
Description: as §2

[14] = system: UT-SCC-81; assay: as above
Description: as §2

[15] = system: UT-SCC-44; assay: as above
Description: as §2

[16] = system: UT-SCC-73; assay: as above
Description: as §2

[17] = system: UT-SCC-106A; assay: as above
Description: as §2

[18] = system: UT-SCC-8; assay: as above
Description: as §2

[19] = system: UT-SCC-14; assay: as above
Description: as §2

[20] = system: UT-SCC-42B; assay: as above
Description: as §2

[21] = culture condition: embedded in Matrigel
[22] = culture condition: embedded in Myogel + collagen I
[23] = culture condition: on top of Matrigel
[24] = culture condition: on top of Myogel
[25] = culture condition: plastic 2D (no matrix)

relative IC50 [2, 24]: > 989 nM
relative IC50 [2, 25]: > 989 nM
relative IC50 [3, 21]: 55.5 nM
relative IC50 [3, 22]: 22.1 nM
relative IC50 [3, 23]: 33.4 nM
relative IC50 [3, 24]: 31.3 nM
relative IC50 [3, 25]: 34.7 nM
relative IC50 [4, 21]: > 989 nM
relative IC50 [4, 22]: > 989 nM
relative IC50 [5, 22]: > 989 nM
relative IC50 [5, 24]: > 989 nM
relative IC50 [5, 25]: > 989 nM
relative IC50 [6, 21]: > 989 nM
relative IC50 [6, 23]: > 989 nM
relative IC50 [6, 24]: > 989 nM
relative IC50 [7, 21]: > 989 nM
relative IC50 [7, 25]: > 989 nM
relative IC50 [8, 22]: > 989 nM
relative IC50 [8, 24]: > 989 nM
relative IC50 [9, 21]: > 989 nM
relative IC50 [9, 23]: > 989 nM
relative IC50 [9, 24]: > 989 nM
relative IC50 [9, 25]: > 989 nM
SMILES: Cn1c(=O)n(-c2ccc(C(C)(C)C#N)cc2)c2c3cc(-c4cnc5ccccc5c4)ccc3ncc21 [Dactolisib]
drug sensitivity score [1, 21]: 5.73 ± 5 DSS
drug sensitivity score [1, 22]: 0.767 ± 1.3 DSS
drug sensitivity score [1, 23]: 0 DSS
drug sensitivity score [1, 24]: 0 DSS
drug sensitivity score [1, 25]: 0 DSS
maximal % inhibition of viability [10, 21]: 0.767 ± 1.3%
maximal % inhibition of viability [10, 22]: 6.03 ± 5.7%
maximal % inhibition of viability [10, 23]: 9.57 ± 4.9%
maximal % inhibition of viability [10, 24]: 4.37 ± 2.7%
maximal % inhibition of viability [10, 25]: 8.8 ± 3.1%
maximal % inhibition of viability [11, 21]: 18.2 ± 15%
maximal % inhibition of viability [11, 22]: 8.93 ± 7.8%
maximal % inhibition of viability [11, 23]: 9.4 ± 3.6%
maximal % inhibition of viability [11, 24]: 7.2 ± 4.8%
maximal % inhibition of viability [11, 25]: 2.4 ± 2.4%
maximal % inhibition of viability [12, 21]: 77.4 ± 0.93%
maximal % inhibition of viability [12, 22]: 83.8 ± 1.4%
maximal % inhibition of viability [12, 23]: 78.6 ± 1.1%
maximal % inhibition of viability [12, 24]: 78.2 ± 1.9%
maximal % inhibition of viability [12, 25]: 76.2 ± 2.5%
maximal % inhibition of viability [13, 21]: 19.7 ± 5%
maximal % inhibition of viability [13, 22]: 9.5 ± 12%
maximal % inhibition of viability [13, 23]: 13.3 ± 2.7%
maximal % inhibition of viability [13, 25]: 8.33 ± 5.8%
maximal % inhibition of viability [14, 21]: 40.7 ± 33%
maximal % inhibition of viability [14, 22]: 7.33 ± 3.7%
maximal % inhibition of viability [14, 23]: 5.13 ± 5.4%
maximal % inhibition of viability [14, 24]: 11.2 ± 3.1%
maximal % inhibition of viability [14, 25]: 6.5 ± 2.2%
maximal % inhibition of viability [15, 21]: 12.5 ± 9.3%
maximal % inhibition of viability [15, 22]: 13.2 ± 23%
maximal % inhibition of viability [15, 23]: 13.7 ± 2.4%
maximal % inhibition of viability [15, 24]: 12.8 ± 4.1%
maximal % inhibition of viability [15, 25]: 16.8 ± 4.5%
maximal % inhibition of viability [16, 21]: 11.8 ± 3.4%
maximal % inhibition of viability [16, 22]: 40.1 ± 8.9%
maximal % inhibition of viability [16, 23]: 9.33 ± 2.9%
maximal % inhibition of viability [16, 24]: 8.23 ± 2.8%
maximal % inhibition of viability [16, 25]: 1.63 ± 0.76%
maximal % inhibition of viability [17, 21]: 3.67 ± 0.31%
maximal % inhibition of viability [17, 22]: 7.53 ± 8.4%
maximal % inhibition of viability [17, 23]: 4.43 ± 3.8%
maximal % inhibition of viability [17, 24]: 5.1 ± 8.8%
maximal % inhibition of viability [17, 25]: 7.07 ± 3.2%
maximal % inhibition of viability [18, 21]: 8.63 ± 5.4%
maximal % inhibition of viability [18, 22]: 18.3 ± 10%
maximal % inhibition of viability [18, 23]: 13.2 ± 5.7%
maximal % inhibition of viability [18, 24]: 9.7 ± 6.6%
maximal % inhibition of viability [18, 25]: 6.9 ± 6.6%
maximal % inhibition of viability [19, 21]: 16.8 ± 19%
maximal % inhibition of viability [19, 22]: 16.2 ± 15%
maximal % inhibition of viability [19, 23]: 7.17 ± 5.8%
maximal % inhibition of viability [19, 24]: 7.03 ± 7.9%
maximal % inhibition of viability [19, 25]: 11.7 ± 10%
maximal % inhibition of viability [20, 21]: 12.9 ± 6%
maximal % inhibition of viability [20, 23]: 10.9 ± 6.9%
maximal % inhibition of viability [20, 24]: 6.13 ± 1.8%
maximal % inhibition of viability [20, 25]: 1.67 ± 0.57%
